In patent publication EP1195162A1 (priority 1999, dated 2000):
Read-outs that look alike come from different tables or passages of the source.

Legend:
rotavirus vaccine = assay: Rotavirus vaccine with oral adjuvant; antibody production in the blood; type: in vivo, mice; settings: adjuvant oral at first inoculation only
Description: A rotavirus vaccine preparation was prepared to contain virus particles of which amount corresponded to 3.3 µg in 20 µL. The methyl ester derivative (2) (methyl 9,12,13-trihydroxy-10E-octadecenoate) as used in Example 5 was dissolved in PBS and prepared at a concentration of 10 µg in 0.5 mL. The resulting preparation was sterilized by filter and dispensed into containers, which were used as rotavirus vaccine-hydroxy unsaturated fatty acid oral preparations or nasal drops. Such preparations were stored at a temperature of not more than 10°C in a cool and dark place.
The rotavirus vaccine as prepared above was administered into mice twice at 3-week intervals, and then the methyl ester derivative was orally administered only at or around the time of the first inoculation. Then, the antibody production in the blood was evaluated.

[1] = test system: anti-influenza virus IgA antibody; type: in vivo, BALB/c mice; settings: 50 µg/kg oral for 5 days, serum after 2 weeks, versus vaccine with aqueous solvent (only a low level), Figure 3
[2] = test system: anti-influenza virus IgA antibody; assay: […]; nasal irrigation liquid IgA by ELISA; type: in vivo, BALB/c mice; settings: secondary response, 50 µg/kg oral over 1-5 days, versus no adjuvant (only a low level), Figure 4
rubella = assay: Measles-rubella vaccine with oral adjuvant; antibody production in the blood, rubella; type: in vivo, mice; settings: vaccine twice at 3-week intervals, adjuvant oral at first inoculation only, vaccine alone: 0.09
Description: (§1) A measles-rubella vaccine preparation was prepared to contain virus particles of each vaccine of which amount corresponded to 7 µg in 20 µL of the preparation. 9,12,13-Trihydroxy-10E-octadecenoic acid dissolved in PBS and sterilized by filter was prepared at a concentration of 2.5 µg in 0.5 mL. A stabilizer (0.2% porcine gelatin, 0.1% sodium glutamate, 5% lactose) was added to these preparations. The resulting mixtures were dispensed into containers, which were used as measles-rubella vaccine combined vaccine-hydroxy unsaturated fatty acid nasal drop or oral preparations. Such preparations were stored at a temperature of not more than 10°C in a cool and dark place.
(§2) The measles-rubella vaccine as prepared above was administered into mice twice at 3-week intervals, and then 9,12,13-trihydroxy-10E-octadecenoic acid was orally administered only at or around the time of the first inoculation. Then, the antibody production in the blood was evaluated.

Mycoplasma = type: in vivo, mice; settings: vaccine intranasal 3 times at 2-week intervals, adjuvant oral at first inoculation only
[3] = test system: anti-influenza virus IgA antibody; type: in vivo, BALB/c mice
measles = assay: Measles-rubella vaccine with oral adjuvant; antibody production in the blood, measles; type: in vivo, mice; settings: vaccine twice at 3-week intervals, adjuvant oral at first inoculation only, vaccine alone: 0.14
Description: as §1, §2

[4] = test system: antibodies (IgG and IgA) specific to the adjuvant and IgE; assay: Detection of antibodies specific to the adjuvant and IgE in nasal irrigation liquid (ELISA); type: in vivo; settings: plate coated with fatty acid-BSA complex, absorbance versus control mice without administration
Description: Subsequently, detection was carried out for the presence of antibodies (IgG and IgA) specific to the adjuvant and IgE. A linked complex between the hydroxy unsaturated-fatty acid and bovine serum albumin as a carrier protein was prepared. Each well of the 96-well EIA plate was first coated with a 100 µl aliquot of solution containing the complex (1 µg/ml). Subsequently, each well of the plate was coated with 300 µl aliquot of a blocking solution (PBS containing 5% skimmed milk) for 1 hour to avoid non-specific reactions. Then, 100 µl samples (nasal irrigation liquid) diluted to various concentrations were added into the respective wells for antigen-antibody reaction and the reaction was continued for 1 hour. The plate was then washed 3 times with PBS-0.05% Tween-20, and then 100 µl of peroxidase-conjugated anti-mouse IgG, IgA or IgE antibody (1:1000) as a secondary antibody was added thereto and the reaction was continued for one hour. After the plate was washed 3 times with PBS-Tween-20, 100 µl of a substrate solution (0.1 M citrate buffer (pH 4) containing 0.003% hydrogen peroxide and ABTS of 0.3 mg/ml) was added thereto. The plate was incubated for 15 minutes for color development. The color (O.D. at 405 nm) was assayed in a micro-plate reader.

[5] = test system: anti-influenza virus IgG antibody; type: in vivo, BALB/c mice; settings: secondary response
diphtheria toxoid (DT) = test system: diphtheria toxoid (DT); set-up: species or system mice; settings: mouse, in vivo
tetanus toxoid (TT) = test system: tetanus toxoid (TT); set-up: species or system mice; settings: mouse, in vivo
pertussis toxin (PT) = test system: pertussis toxin (PT); set-up: species or system mice; settings: mouse, in vivo

CCCCCC(O)C(O)/C=C/C(O)CCCCCCCC(=O)OC (stereo not drawn) [methyl ester derivative, methyl 9,12,13-trihydroxy-10E-octadecenoate]
ELISA titer of antibody produced (rotavirus vaccine; inoculation of nasal vaccine drop twice at 3-week intervals, vaccine alone: 0.089): 0.38
ELISA titer of antibody produced (rotavirus vaccine; vaccine inoculated orally twice at 3-week intervals, control without adjuvant: 0.018): 0.27

CCCCCC(O)C(O)/C=C/C(O)CCCCCCCC(=O)O (stereo not drawn) [9,12,13-trihydroxy-10E-octadecenoic acid]
titer of anti-influenza virus IgA antibody in the serum [1]: highly elevated
titer of anti-influenza virus IgA antibody in the nasal irrigation liquids [2]: highly elevated
ELISA titer of antibody produced for rubella (rubella): 0.29
average number of lesions (Mycoplasma; vaccine alone: 302): 178
mice in which lesions associated with Mycoplasma infection were found (Mycoplasma; vaccine alone: all of 10): 3 of 10
adjuvant activity compared with the same dose of CTB (positive control), nasal irrigation liquid IgA ([3]; mouse, in vivo): comparable
adjuvant activity compared with the same dose of CTB (positive control), serum IgA ([3]; mouse, in vivo): comparable
titer of anti-influenza virus IgA antibody in the serum ([3]; secondary response, adjuvant 1 µg per mouse oral, vaccine subcutaneous, compared with HA vaccine singly used, Figure 7): significantly increased
titer of anti-influenza virus IgA antibody in the nasal irrigation liquid ([3]; secondary response, adjuvant 1 µg per mouse oral, vaccine subcutaneous, vaccine alone: only a low level, Figure 8): significantly elevated
ELISA titer of antibody produced for measles (measles): 0.30
antibodies (IgG, IgA) specific to the adjuvant and IgE [4]: neither antibody (IgG, IgA) specific to the adjuvant nor IgE was detectable
titer of anti-influenza virus IgG antibody in the serum ([5]; compared with HA vaccine singly used, Figure 5): increased
titer of anti-influenza virus IgG antibody in the lung irrigation liquid ([5]; vaccine alone: only a low level, Figure 6): significantly elevated
level of anti-DT-IgA antibody (diphtheria toxoid (DT)): 11 ELISA units
level of anti-DT-IgG antibody (diphtheria toxoid (DT)): 70 ELISA units
level of anti-TT-IgA antibody (tetanus toxoid (TT)): 11 ELISA units
level of anti-TT-IgG antibody (tetanus toxoid (TT)): 75 ELISA units
level of anti-PT-IgA antibody (pertussis toxin (PT)): 14 ELISA units
level of anti-PT-IgG antibody (pertussis toxin (PT)): 442 ELISA units
